The target of assay [1] is Methionine aminopeptidase 2 (Homo sapiens, UniProt P50579). Put plainly: Inhibition of human MetAP2 expressed in baculovirus infected Sf9 cells.
Assay [2] is described as follows: Inhibition of Escherichia coli MetAP.
The subject of a further assay is Staphylococcus aureus. Put plainly: Inhibition of Staphylococcus aureus MetAP at 25 uM.
The nature of assay [3]: Inhibition of Staphylococcus aureus MetAP.
The test system of the next assay is Escherichia coli. The assay is described as follows: Inhibition of Escherichia coli MetAP at 25 uM.
Assay [4] has as its target Methionine aminopeptidase 1 (Homo sapiens, UniProt P53582). Put plainly: Inhibition of human MetAP1.

Each structure is given as a SMILES string. The source made the active and inactive calls. No cut-off for these calls is given here.

Sequence of Methionine aminopeptidase 2 (P50579 whole entry): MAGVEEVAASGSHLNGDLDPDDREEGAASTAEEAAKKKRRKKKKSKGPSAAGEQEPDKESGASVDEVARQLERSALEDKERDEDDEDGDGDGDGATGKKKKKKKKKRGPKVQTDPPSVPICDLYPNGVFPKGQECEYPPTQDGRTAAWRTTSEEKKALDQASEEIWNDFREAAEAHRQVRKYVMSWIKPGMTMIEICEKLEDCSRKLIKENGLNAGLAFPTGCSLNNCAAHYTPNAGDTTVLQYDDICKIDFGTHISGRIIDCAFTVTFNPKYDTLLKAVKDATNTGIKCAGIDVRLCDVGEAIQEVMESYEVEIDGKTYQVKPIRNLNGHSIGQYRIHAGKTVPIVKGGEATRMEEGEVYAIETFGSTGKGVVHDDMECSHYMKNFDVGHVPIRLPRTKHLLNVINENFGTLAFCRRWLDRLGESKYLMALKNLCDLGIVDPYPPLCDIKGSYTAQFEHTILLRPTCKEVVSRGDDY

`Cc1ccc2[nH]c(-c3ccccn3)nc2c1` returned an IC50 in assay [1] of 7.7 µM.
For `N/C(S)=N/c1nc2ccccc2[nH]1`, the values for the IC50 in assay [2] and in assay [3] were 9 µM and 35.9 µM, respectively. In the assay with Staphylococcus aureus, the inhibition came to 31%.
Take `c1csc(-c2nc3ccccc3[nH]2)c1`: the inhibition result with Escherichia coli and with Staphylococcus aureus was “inactive” each time.
On to `c1cncc(-c2nc3ccccc3[nH]2)c1`, for which, in the assay on Escherichia coli, the inhibition entry was “inactive”. The same molecule showed an inhibition in the assay on Staphylococcus aureus of 20%.
In assay [4], `O=[N+]([O-])c1ccc2nc(-c3cscn3)[nH]c2c1` displayed a 50% inhibitory concentration (IC50) of 48.5 µM.
In the case of `c1ccc(-c2nc3ccc[nH]c-3n2)nc1`, the IC50 in assay [2] stood at 0.11 µM; in assay [3], 18.8 µM. The inhibition with Staphylococcus aureus was 76%.
Regarding `Oc1cccc2cccnc12` [OXYQUINOLINE], the inhibition in the assay with Escherichia coli is 95%; in the assay on Staphylococcus aureus it was 65%. Also, the IC50 in assay [2] is 0.77 µM; in assay [3], 18.3 µM; in assay [4], 21.5 µM; in assay [1], 5.6 µM.
For the molecule `c1ccc(-c2nc3ccccc3[nH]2)nc1`, the IC50 came to 0.57 µM in assay [2], 19.9 µM in assay [3], 28.4 µM in assay [4] and 13.3 µM in assay [1]. Besides, in the assay on Staphylococcus aureus, the inhibition was 56%.
`c1cc2[nH]c(-c3cscn3)nc2cn1`: the IC50 was determined as 1.7 µM in assay [2] and 45.5 µM in assay [3]. Besides, the inhibition in the assay with Staphylococcus aureus is 32%.
The like results for `Fc1ccc2nc(-c3ccccn3)[nH]c2c1` were, in that order, 1.5 µM, 40.1 µM and 31%.
In turn, `Cc1cc2nc(-c3cscn3)[nH]c2cc1C` displayed an IC50 in assay [2] of 10 µM. In addition, the inhibition in the assay on Staphylococcus aureus amounted to 17%.
Turning to `O=S(=O)(Nc1nccs1)c1ccccn1`, in the assay with Escherichia coli, the inhibition stood at 23%.
Regarding `c1ccc(-c2nc3cc[nH]cc-3n2)nc1`, the IC50 in assay [2] amounted to 0.55 µM; in assay [3], 22.8 µM. The same molecule gave an inhibition in the assay with Staphylococcus aureus of 55%.
Turning to `c1ccc(-c2nc3ncc[nH]c-3n2)nc1`, the figures for the IC50 in assay [2] and in assay [3] were 0.24 µM and 22 µM, respectively. The molecule also showed an inhibition with Staphylococcus aureus of 51%.
As to `O=C(Nc1cccc2cccnc12)c1ccccc1`, the inhibition entry in the assay with Escherichia coli and with Staphylococcus aureus was “inactive” each time.
`Clc1ccc2[nH]c(-c3cscn3)nc2c1`: the IC50 in assay [2] was 5.2 µM. In the assay on Staphylococcus aureus, this molecule gave an inhibition of 15%.
For `c1ccc(Cn2c(-c3ccccn3)nc3ccccc32)cc1`, in that order: 0.99 µM and “inactive”.
For `O=S(=O)(Oc1cccc2cccnc12)c1ccccc1`, the inhibition result in the assay with Escherichia coli is “inactive”. For the same molecule, the inhibition in the assay on Staphylococcus aureus was 62%. For the same molecule, the IC50 in assay [3] came to 16 µM.
`COC(=O)Nc1nc2cc(C(=O)c3ccccc3)ccc2[nH]1` gave an inhibition in the assay with Escherichia coli of 47%. Moreover, the inhibition entry with Staphylococcus aureus is “inactive”.
For `Cc1cc(NS(=O)(=O)c2ccccn2)no1`, in that order: 21% and “inactive”.
`c1ccc2[nH]c(-c3cnccn3)nc2c1` displayed an IC50 in assay [2] of 4.6 µM. Besides, in the assay on Staphylococcus aureus, the inhibition result is “inactive”.
The like results for `Clc1ccc2nc(-c3ccccn3)[nH]c2c1` were, in that order, 1.7 µM and 16%.
For `Nc1ccc2[nH]c(-c3cscn3)nc2c1`, the IC50 stood at 3.4 µM in assay [2] and 2.3 µM in assay [3]. Moreover, the inhibition in the assay on Staphylococcus aureus was found to be 92%.
With `Nc1ccc2nc(-c3ccccn3)[nH]c2c1`, in assay [1], the IC50 worked out at 9.3 µM.
Regarding `O=C(Oc1cccc2cccnc12)c1ccccc1` [BENZOXIQUINE], the inhibition with Escherichia coli was found to be 32%; in the assay with Staphylococcus aureus, 10%. Also, inhibition in assay [1] was half-maximal at 34.8 µM (IC50).
Consider `Cc1ccc(S(=O)(=O)Oc2cccc3cccnc23)cc1`, for which the inhibition result in the assay on Escherichia coli and in the assay with Staphylococcus aureus was “inactive” throughout.
As for `Cc1cc(NC(=O)c2ccccn2)no1`, the inhibition in the assay on Escherichia coli worked out at 80%; in the assay with Staphylococcus aureus, 20%. For the same molecule, the IC50 in assay [2] is 2.8 µM.
Take `c1cnc2nc(-c3nccs3)[nH]c2c1`: the IC50 in assay [2] amounted to 0.08 µM. Moreover, the inhibition with Staphylococcus aureus turned out to be 21%.
Turning to `COC(=O)Nc1nc2ccccc2[nH]1`, in the assay on Escherichia coli, the inhibition stood at 34%. For the same molecule, the inhibition result with Staphylococcus aureus is “inactive”.
On to `O=S(=O)(Oc1cccc2cccnc12)c1ccccn1`, for which the inhibition in the assay on Escherichia coli worked out at 38%. Further, the inhibition result in the assay on Staphylococcus aureus was “inactive”.
For `O=[N+]([O-])c1ccc2[nH]c(-c3ccccn3)nc2c1`, the IC50 in assay [2] was 0.16 µM; in assay [4] it was 28.8 µM. The inhibition entry with Staphylococcus aureus was “inactive”.
Regarding `CC(C)(C)c1ccc2[nH]c(-c3ccccn3)nc2c1`, the IC50 in assay [2] was 2.6 µM; in assay [3] it was 38.9 µM. Further, the inhibition with Staphylococcus aureus came to 40.9%.
As for `c1ccc(-c2nc3c[nH]cnc-3n2)nc1`, in assay [2], the IC50 was found to be 0.38 µM. Also, the inhibition with Staphylococcus aureus worked out at 18%.
On to `Oc1cccnc1-c1nc2ccccc2[nH]1`, for which the IC50 in assay [2] is 0.78 µM; in assay [3], 4.4 µM. The inhibition in the assay on Staphylococcus aureus was determined as 97%.
`O=C(Nc1nccs1)c1ccccn1`: the inhibition with Escherichia coli amounted to 100%; in the assay on Staphylococcus aureus it was 58%. For the same molecule, the 50% inhibitory concentration (IC50) was 0.06 µM in assay [2], 21.2 µM in assay [3], 8.1 µM in assay [4] and 25.8 µM in assay [1].
With `Cc1ccc2nc(-c3ccccn3)[nH]c2c1`, the IC50 in assay [2] is 2.1 µM; in assay [3], 19.4 µM. The molecule also registered an inhibition in the assay on Staphylococcus aureus of 68%.
On to `c1ccc2[nH]c(-c3cscn3)nc2c1` [THIABENDAZOLE], for which the inhibition with Escherichia coli was 86.3%; in the assay on Staphylococcus aureus, 28%. The IC50 in assay [2] was 0.47 µM; in assay [4], 47.8 µM; in assay [1], 44.7 µM.
For `c1coc(-c2nc3ccccc3[nH]2)c1`, the inhibition was found to be 26% with Escherichia coli and 10% in the assay on Staphylococcus aureus.
As to `Oc1cccc(-c2nc3ccccc3[nH]2)n1`, the IC50 in assay [2] came out at 1.3 µM; in assay [3] it was 29.2 µM. The molecule further displayed an inhibition in the assay with Staphylococcus aureus of 47%.
As for `Oc1ccccc1-c1nc2ccccc2[nH]1`, the inhibition in the assay on Escherichia coli was found to be 66%; in the assay with Staphylococcus aureus, 12%.
As to `COC(=O)Nc1nc2cc(Sc3ccccc3)ccc2[nH]1`, the inhibition entry with Escherichia coli is “inactive”. This molecule gave an inhibition with Staphylococcus aureus of 12.5%.
`c1cc2nc(-c3cscn3)[nH]c2cn1` displayed an IC50 in assay [4] of 19 µM.
As for `N#Cc1ccc2[nH]c(-c3ccccn3)nc2c1`, the IC50 in assay [2] was determined as 0.43 µM; in assay [3], 33 µM. The inhibition in the assay with Staphylococcus aureus came to 29%.
In the case of `O=S(=O)(Nc1cccc2cccnc12)c1ccccc1`, the inhibition in the assay on Escherichia coli was 93%; in the assay with Staphylococcus aureus, 47%. The figures for the IC50 in assay [2], in assay [3] and in assay [1] were 11 µM, 22.9 µM and 39.8 µM, respectively.
`c1ccc2[nH]c(Nc3nccs3)nc2c1`: the results for the IC50 in assay [2] and in assay [3] were 0.54 µM and 22.4 µM, respectively. The inhibition with Staphylococcus aureus was 52%.
For `Nc1ccc2[nH]c(-c3ccccn3)nc2c1`, the IC50 in assay [2] was 0.97 µM; in assay [3] it was 4.9 µM. In the assay with Staphylococcus aureus, this molecule gave an inhibition of 92%.
Take `CCCSc1ccc2[nH]c(NC(=O)OC)nc2c1`: the inhibition is 35% with Escherichia coli and 10.5% in the assay with Staphylococcus aureus.
`CC(C)(C)c1ccc2[nH]c(-c3cscn3)nc2c1`: the IC50 in assay [2] was found to be 3.9 µM; in assay [3] it was 41.7 µM. Moreover, the inhibition in the assay on Staphylococcus aureus amounted to 30.2%.
With `O=C(Nc1nccs1)c1ccc([N+](=O)[O-])cc1`, the inhibition entry in the assay on Escherichia coli and in the assay on Staphylococcus aureus was “inactive” each time.
For `Cc1cc2nc(-c3ccccn3)[nH]c2cc1C`, the IC50 came to 2.4 µM in assay [2] and 17.9 µM in assay [3]. Further, the inhibition in the assay on Staphylococcus aureus is 87%.

As a reminder, the IC50 is the concentration that gives 50% inhibition. Read a low IC50 as higher potency. By inhibition is commonly meant the change of the read-out against control, counted positive when it falls.
